# “Also recorded” adds a separate entry of the source.
# Legend:
# human A2A receptors = human A2A receptors (Homo sapiens, UniProt P29274); settings: literature; read-out: Ki for the binding to human A2A receptors; cited from earlier work
# [1] = system: HCE (human ciliary epithelial) cell line, NPE cells; assay: Cell volume in isosmotic solution (isosmotic shrinkage), Coulter Counter; assay type: cell-based
# Experimental: Cell Culture The HCE (human ciliary epithelial) cell line (Carre et al., supra, 1997) is an immortalized NPE cell line obtained from primary cultures of adult human epithelium. […] Eye Res. 57:3057-3063 (1993); Yantorno et al., Exp. Eye Res. 49:423-437 (1989)). […] Cells were passaged every 6-7 days and were studied 8-13 days after passage, after reaching confluence. An immortalized PE-cell line from a primary culture of bovine pigmented ciliary epithelium were also grown under matching conditions. Measurement of Cell Volume in Isosmotic Solution: The volume of PE and NPE cells was measured, since the movement of fluid underlies a change in PE and NPE cell volume, respectively. This is also thought to be the same as the movement of fluid which underlines the secretion of aqueous humor (FIG. 1). […] Parallel aliquots of cells were studied on the same day. One aliquot usually served as a control, and the others were exposed to different experimental conditions at the time of suspension. The same amount of solvent vehicle (dimethylformamide, DMSO or ethanol) was always added to the control and experimental aliquots. […] Cell volumes of isosmotic suspensions were measured with a Coulter Counter (model ZBI-Channelyzer II), using a 100 μm aperture (Civan et al., supra, 1994). As previously described (Wax et al., supra, 1993), the cell volume (vC) of the suspension was taken as the peak of the distribution function. Cell shrinkage was fit as a function of time (t) to a monoexpenential function: […]^0^)/τ] {1) where v∞ is the steady-state cell volume, v0 is the cell volume at the first point (t0) of the time course to be fit, and τ is the time constant of the shrinkage. For purposes of data reduction, the data were normalized to the first time point, taken to be 100% isotonic volume. Fits were obtained by nonlinear least-squares regression analysis, permitting both v∞ and τ to be variables. […] Med. Chem. 37:636-646 (1994; Jacobson et al., supra, 1995; Jacobson et al., FEBS Lett. 336:57-60 (1993)).
# mouse IOP [2] = assay: Mouse IOP after topical application, invasive servo-null micropipette system (SNMS); assay type: in vivo, Black Swiss mice
# Experimental: (§1) The test animals were black Swiss outbred mice of mixed sex, 7-9 weeks old and 25-30 g in weight, obtained from Taconic Inc. (Germantown, N.Y.), and maintained under 12:12-h light/dark illumination cycle and allowed unrestricted access to food and water. Mice were anesthetized with intraperitoneal ketamine ([…]) supplemented by topical proparacaine HCl 0.5% (Allergan, Bausch & Lomb) for the IOP measurements. IOP was measured invasively (SNMS) and non-invasively by pneumotonometry in separate animals.
# By the SNMS approach (Avila et al., supra, 2001), the exploring micropipette, of […] outer diameter, was filled with a highly conducting solution and advanced across the cornea into the anterior chamber. A refined technique by Wang et al., Invest. Opthalmol. Vis. Sci. (serial online) (Aug. 31, 2006) available at www.iovs.org/egi/letters/46/9/3274#422, enhanced stability and reduce the background noise of the records, permitting fabrication of micropipettes whose resistance is 0.1-0.3 MΩ, rather than the 0.25-0.4 MΩ used initially. The filling solution was reduced from 3M KCl to 2M NaCl, rather than 3 M KCl. The resistance of the filled micropipette was balanced in a bridge circuit, and the tip was then advanced across the cornea. Upon entering the anterior chamber of the eye, the IOP forces the much lower-conducting aqueous humor into the micropipette tip, displacing the original filling solution. The micropipette resistance was thereby increased, unbalancing the bridge circuit and triggering a bellows to provide a counter-pressure, restoring the position of the filling solution and returning the resistance to its initial value. Thus, the value of the counter-pressure equals the IOP. As in the past (Avila et al., supra, 2001), the stability of the records permitted continuous measurements for tens of minutes during the course of drug applications.
# (§2) Ketamine HCl was purchased from Phoenix Pharmaceutical Inc. (St. Joseph, Mo.). Other drugs were obtained from Sigma Chemical (St. Louis, Mo.). Drugs were applied topically with an Eppendorf pipette. […] The final droplet solution contained the drugs at the stated concentrations together with <2% DMSO and 0.0005% benzalkonium chloride at an osmolality of 295-300 mOsm. DMSO was omitted, altogether, from droplets containing the hydrophilic compounds adenosine, carbachol and carboxyfluorescein.
# (§3) Effects on invasively-measured IOP were measured 10 min after topical application because after this time, the continued presence of the micropipette can be associated with a downward drift of the IOP, even under control conditions. In contrast, smaller droplets ([…]) were applied to the eye more frequently (three times instead of once) with the non-invasive technique, in order to forestall drying of the eye associated with the airflow from the pneumotonometer. With the non-invasive protocol, the IOP was stable for 30 min under control conditions.
# In Table 1, an endpoint of 10 minutes was used for the invasive measurements in light of the above-discussed downward drift of the IOP, even under control conditions. Also the need for smaller, more frequent droplets are discussed above with regard to the non-invasive technique using the pneumotonometer. As above, with the non-invasive protocol, the IOP was stable for 30 minutes under control conditions.
# mouse IOP [3] = assay: Mouse IOP after topical application, non-invasive pneumotonometry; assay type: in vivo, Black Swiss mice; settings: for Δ(IOP) Pneumotonometer: topical droplets 200 nM (1% DMSO), 30 min
# Experimental: as §1
# By comparison, IOP was measured non-invasively by pneumotonometry (OBT) (Avila et al., supra, 2005). As previously described, the commercially available tip of the ocular blood tomography (OBT) pneumotonometer (Blood Flow Analyzer [BFA] probe tip; Paradigm Medical Industries Inc.) was fit to a custom-built mount. Air flow from a constant pressure source was passed through the mount to reach a diaphragm forming the end of the BFA tip. The flow of air displaces the diaphragm outward, permitting escape of the air through holes in the wall of the probe tip into the atmosphere. Pressure was monitored with a transducer connected through a T-connection to the base of the BFA tip. The probe assembly was advanced to the cornea with a three-axis micromanipulator. The probe tip was advanced sufficiently to make contact with the tear film, as was indicated by a shift in the baseline output reading. In a refined method, the tip was withdrawn until the […] was visually displaced from the tear film. The output was then adjusted to zero before advancing the tip again. Contact with the cornea depresses the diaphragm of the BFA tip, occluding access of the air flow to the escape holes and raising the pressure at the base of the tip.
# This approach was simplified to expedite identification of the endpoint, and the probe was subsequently advanced in about 10 standardized steps of approximately […] at intervals of about 10 seconds to identify the inflection region (Wang et al., supra, 2006). […] The pneumotonometric estimates of IOP were previously found to agree with manometric measurements in cannulated preparations and with estimates obtained by the servo-null technique (Avila et al., supra, 2005). Having established the baseline value of IOP, the position along the axis of advance of the micromanipulator was noted, and the probe was retracted from contact with the cornea. Subsequent measurements of IOP at later time points were obtained by advancing the probe tip to the same position, with the placement of the mouse maintained stereotactically. The measurements were conducted at 10-min intervals to avoid potential artifacts associated with prolonged pressure on the cornea.
# as §2, §3
# In Table 1, an endpoint of 10 minutes was used for the invasive measurements in light of the above-discussed downward drift of the IOP, even under control conditions. […]
# cultured human NPE cells = settings: cited from earlier work
# mouse IOP [4] = assay: Mouse IOP monitored with SNMS, protocols of Yang et al. 2005; assay type: in vivo
# Experimental: Pharmacol. 65:1675-1684 (2003)), is effective both in blocking adenosine-triggered shrinkage of cultured human NPE cells and in lowering IOP of mice (Yang et al., supra, 2005). MRS-1292 was tested on the mouse for two reasons. Transgenic mice provide a convenient opportunity for studying the molecular physiology and pharmacology in the living animal ([…] al., supra, 2003). Second, measurement of IOP permitted us to assess the effects of MRS-1292 on the target parameter. […] Therefore, to directly assess the effect of MRS-1292 in vivo in the mouse, IOP was monitored before and after drug application. IOP was monitored with the Servo-Null-Micropipette System (SNMS). The test protocols are described in detail by Yang et al. supra, 2005, herein incorporated by reference. […] In comparison, addition of the same volume of saline at the same osmolality produced no significant change in IOP (-0.3±1.2 mmHg, n=6, p>0.8) 14 min later. […] To estimate an approximate range, “penetrance” was defined by Yang et al. as the ratio of the published Ki value at receptors in vitro to the minimally effective droplet concentration, for a number of adenosine agonists and antagonists. Thus, penetrance ranges from 1:100 to 1:1000 for purinergic drugs that have been tested in the mouse, and it is not very different from the drug penetrance of 1:100 for agents applied topically to rabbits and primates. This rule of thumb also applies to acylguanidine blockers and bumetanide, whose topical effects have also been studied in the mouse eye. Thus, the approximately 1:1000 penetrance that Yang et al. reported in the 2003 citation for MRS 1292 in the present experiments is consistent with past studies
# pupil size = assay: Pupil diameter after topical carbachol with or without corneal impalement; assay type: in vivo, mouse
# Experimental: as §1
# To measure pupil diameter, the pupil and an adjacent ruler having 1-mm graticules were imaged with a digital camera. Care was taken to avoid applying mechanical stress, and consequently to avoid displacing the micropipette tip from its position in the anterior chamber. Lengths were measured by IMAGE J (National Institutes of Health) and the pupil diameters were calibrated to the ruler.
# Pupillary diameter was measured before and 10 min after topical addition of […] containing 40 mM ([…]) of the miotic carbachol to both eyes of the mouse. One eye was not punctured; the other eye was impaled with the SNMS micropipette. Either the right or left eye of each mouse was chosen randomly for impalement. At so low a topical concentration and in the absence of a micropipette, exposure to carbachol for 10 min had no significant effect on pupillary size. The baseline diameter was 1.80±0.11, and was insignificantly changed by carbachol application, increasing by 0.12±0.17 mm (n=6, P>0.4).
# Sequence of human A2A receptors (P29274 whole entry): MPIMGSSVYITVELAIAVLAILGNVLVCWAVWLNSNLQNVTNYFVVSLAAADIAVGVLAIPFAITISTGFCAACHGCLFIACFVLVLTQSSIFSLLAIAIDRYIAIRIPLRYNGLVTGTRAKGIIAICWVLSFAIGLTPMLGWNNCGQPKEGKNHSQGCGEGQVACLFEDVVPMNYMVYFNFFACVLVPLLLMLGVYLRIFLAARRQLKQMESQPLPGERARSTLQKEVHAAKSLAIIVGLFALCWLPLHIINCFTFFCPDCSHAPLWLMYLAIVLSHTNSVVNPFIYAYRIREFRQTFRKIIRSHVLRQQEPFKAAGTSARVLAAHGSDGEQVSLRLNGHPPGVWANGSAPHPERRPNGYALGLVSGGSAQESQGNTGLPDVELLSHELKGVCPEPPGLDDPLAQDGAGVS
compound,measurement,setting,value
"3-ethyl 5-benzyl-2-methyl-6-phenyl-4-styryl-1,4-(±)-dihydropyridine-3,5-dicarboxylate [MRS-1097]",Ki,human A2A receptors,4.77 µM
CCNC(=O)[C@H]1O[C@@H](n2cnc3c(N)nc(NCCc4ccc(CCC(=O)O)cc4)nc32)[C@H](O)[C@@H]1O [CGS-21680],effect of agonist on isosmotic volume of NPE cells,[1]; agonist 100 nM,exerted no effect; also recorded: no detectable effect
same,effect of agonist on isosmotic volume of NPE cells,[1]; agonist 3 μM,triggered isosmotic shrinkage; also recorded: did trigger isosmotic shrinkage
"OC[C@H]1O[C@@H](n2cnc3c(NC4CCCC4)ncnc32)[C@H](O)[C@@H]1O [CPA, N^6-cyclopentyladenosine]",effect of agonist on isosmotic volume of NPE cells,"[1]; 30 nM and 1 μM (data not shown, N=3)",no significant shrinkage
same,effect of agonist on isosmotic volume of NPE cells,[1]; agonist 100 nM,had little effect; also recorded: small slow effect of uncertain significance
same,effect of agonist on isosmotic volume of NPE cells,[1]; agonist 3 μM,none at all; also recorded: no significant shrinkage
CNC(=O)[C@H]1O[C@@H](n2cnc3c(NCc4cccc(I)c4)nc(Cl)nc32)[C@H](O)[C@@H]1O [Cl-IB-MECA],increase in IOP over baseline,"mouse IOP [2]; SNMS, after 10 min, adenosine 10 mM, Cl-IB-MECA 200 nM droplet",10.0±2.9 mmHg
same,Δ(IOP) Servo-Null,"mouse IOP [2]; topical droplet 200 nM (1% DMSO), endpoint 10 min",+10.0 ± 2.9 mm Hg
same,effect on mouse IOP measured non-invasively (in words),"mouse IOP [3]; pneumotonometry, topical, MRS-3833 at 200 nM",produced no significant increase in IOP
same,Δ(IOP) Pneumotonometer,mouse IOP [3],+0.7 ± 1.4 mm Hg
same,shrinkage of HCE cells,"[1]; in the presence of gramicidin, concentration not given",produced shrinkage of HCE cells
O=C1NCCC12O[C@@H](n1cnc3c(NCc4cccc(I)c4)ncnc31)[C@H](O)[C@@H]2O (stereo partly drawn) [MRS-1292],time constant (τ) of the adenosine-triggered shrinkage in the presence of MRS-1292,cultured human NPE cells; 10 μM adenosine plus MRS-1292,11.7 ± 2.6 min
same,Δv∞ steady-state shrinkage,"cultured human NPE cells; 10 μM adenosine, 2 min pretreatment with MRS-1292, gramicidin, 60 min study",1.9±0.2%
same,"time of maximum reduction in IOP, mean",mouse IOP [4]; 25 μM,15 ± 1 min
same,maximum reduction in IOP,mouse IOP [4]; droplets containing 25 μM,4.4±0.8 mm Hg
"CCOC(=O)c1c(CC)c(C(=O)SCC)c(CC)[n+](C)c1-c1ccccc1.[I-] [MRS-1649, 2,4-diethyl-1-methyl-3-(ethylsulfanylcarbonyl)-5-ethyloxycarbonyl-6-phenylpyridium iodide]",effect on IOP in the mouse (in words),"mouse IOP [2]; tested by the inventors, technique not given",found to lower IOP in the mouse
CCC(=O)O[C@@H]1[C@H](OC(=O)CC)[C@@H](C(=O)NC)O[C@H]1n1cnc2c(NCc3cccc(I)c3)nc(Cl)nc21 [MRS-3823],Δ(IOP) Pneumotonometer,mouse IOP [3],+0.2 ± 0.8 mm Hg
C[N+](C)(C)CCOC(N)=O [carbachol],effect on pupil size,"pupil size; 4 mM droplet, with or without corneal impalement (n=2)",had no effect on pupil size
same,reduction of the pupil diameter,"pupil size; 40 mM droplet, 10 min, cornea impaled with micropipette",38%
same,contraction of the pupil diameter,"pupil size; 40 mM droplet, 10 min, cornea impaled, baseline 2.00±0.15 mm",0.76±0.09 mm
same,change (increase) of pupil diameter,"pupil size; 40 mM droplet, 10 min, eye not punctured, baseline 1.80±0.11",0.12±0.17 mm
